Experimental data published in paper PMC5218480 (PLoS ONE, 2017).

System: MV-4-11 cells
Test: Gene expression microarray analysis (Affymetrix PrimeView) and GSEA
Type: cell-based, human
Set-up: RFU PODN (11730768_x_at) / Fold change /veh PODN (11730768_x_at) / RFU LINC00158 (11744669_a_at) / Fold change /veh LINC00158 (11744669_a_at) / RFU DUSP10 (11751237_a_at) / Fold change /veh DUSP10 (11751237_a_at) / RFU ID3 (11757404_x_at) / Fold change /veh ID3 (11757404_x_at) / RFU PLEKHG5 (11737974_s_at) / Fold change /veh PLEKHG5 (11737974_s_at) / RFU LRRC4B (11730491_at) / Fold change /veh LRRC4B (11730491_at) / RFU GIMAP4 (11747438_a_at) / Fold change /veh GIMAP4 (11747438_a_at) / RFU KRT8 (11758183_x_at) / Fold change /veh KRT8 (11758183_x_at) / RFU CNN1 (11734310_a_at) / Fold change /veh CNN1 (11734310_a_at) / RFU VPS37D (11726825_at) / Fold change /veh VPS37D (11726825_at) / RFU C10orf10 (11716522_x_at) / Fold change /veh C10orf10 (11716522_x_at) / RFU KIR2DL2 /// KIR2DL4 /// KIR2DL5A /// KIR2DL5B /// KIR2DS1 /// KIR2DS2 /// KIR2DS3 /// KIR2DS4 /// KIR3DL3 /// KIR3DL3 /// KIR3DS1 (11738374_at) / Fold change /veh KIR2DL2 /// KIR2DL4 /// KIR2DL5A /// KIR2DL5B /// KIR2DS1 /// KIR2DS2 /// KIR2DS3 /// KIR2DS4 /// KIR3DL3 /// KIR3DL3 /// KIR3DS1 (11738374_at) / RFU C1QL1 (11718748_at) / Fold change /veh C1QL1 (11718748_at) / RFU TMPRSS4 (11747572_a_at) / Fold change /veh TMPRSS4 (11747572_a_at) / RFU HAMP (11756126_x_at) / Fold change /veh HAMP (11756126_x_at) / RFU RNFT2 (11725882_a_at) / Fold change /veh RNFT2 (11725882_a_at) / RFU NR4A2 (11747474_a_at) / Fold change /veh NR4A2 (11747474_a_at) / RFU ABCC12 (11746883_a_at) / Fold change /veh ABCC12 (11746883_a_at) / RFU TMEM136 (11760407_x_at) / Fold change /veh TMEM136 (11760407_x_at) / RFU CLDN22 /// WWC2 (11732394_at) / Fold change /veh CLDN22 /// WWC2 (11732394_at) / RFU HLA-DPB1 (11760878_x_at) / Fold change /veh HLA-DPB1 (11760878_x_at) / RFU SPINT1 (11716480_a_at) / Fold change /veh SPINT1 (11716480_a_at) / RFU GAP43 (11754022_s_at) / Fold change /veh GAP43 (11754022_s_at) / RFU A4GNT (11735810_at) / Fold change /veh A4GNT (11735810_at) / RFU PRB3 (11715151_x_at) / Fold change /veh PRB3 (11715151_x_at) / RFU TUBB4B (11761932_at) / Fold change /veh TUBB4B (11761932_at) / RFU CAPN14 (11732068_a_at) / Fold change /veh CAPN14 (11732068_a_at) / RFU TMCC2 (11721928_a_at) / Fold change /veh TMCC2 (11721928_a_at) / RFU IRGQ (11745062_a_at) / Fold change /veh IRGQ (11745062_a_at) / RFU FAM174B (11720279_a_at) / Fold change /veh FAM174B (11720279_a_at) / RFU TMPRSS4 (11748680_a_at) / Fold change /veh TMPRSS4 (11748680_a_at) / RFU FAM212B (11763350_a_at) / Fold change /veh FAM212B (11763350_a_at) / RFU PLEKHG5 (11743358_a_at) / Fold change /veh PLEKHG5 (11743358_a_at) / RFU ZSCAN30 (11745921_a_at) / Fold change /veh ZSCAN30 (11745921_a_at) / RFU CMKLR1 (11741424_a_at) / Fold change /veh CMKLR1 (11741424_a_at) / RFU LOC101060620 /// MAPK8IP1 (11723275_at) / Fold change /veh LOC101060620 /// MAPK8IP1 (11723275_at) / RFU SPTSSB (11747773_x_at) / Fold change /veh SPTSSB (11747773_x_at) / RFU PRSS12 (11739890_at) / Fold change /veh PRSS12 (11739890_at) / RFU BIN1 (11741810_x_at) / Fold change /veh BIN1 (11741810_x_at) / RFU WNT11 (11732464_a_at) / Fold change /veh WNT11 (11732464_a_at) / RFU C10orf10 (11716521_a_at) / Fold change /veh C10orf10 (11716521_a_at) / RFU C5orf56 (11738089_at) / Fold change /veh C5orf56 (11738089_at) / RFU CYB561 (11721691_x_at) / Fold change /veh CYB561 (11721691_x_at) / RFU ANKRD19P (11752326_a_at) / Fold change /veh ANKRD19P (11752326_a_at) / RFU OR2T12 /// OR2T33 /// OR2T8 (11738714_s_at) / Fold change /veh OR2T12 /// OR2T33 /// OR2T8 (11738714_s_at) / RFU VCAN (11748164_a_at) / Fold change /veh VCAN (11748164_a_at) / RFU JSRP1 (11732532_at) / Fold change /veh JSRP1 (11732532_at) / RFU KRTAP10-11 (11738290_x_at) / Fold change /veh KRTAP10-11 (11738290_x_at) / RFU MYO3A (11730013_a_at) / Fold change /veh MYO3A (11730013_a_at) / RFU EBF3 (11725865_a_at) / Fold change /veh EBF3 (11725865_a_at) / RFU CAMK2N1 (11719241_x_at) / Fold change /veh CAMK2N1 (11719241_x_at) / RFU C5orf56 (11738088_a_at) / Fold change /veh C5orf56 (11738088_a_at) / RFU OLFML3 (11715873_a_at) / Fold change /veh OLFML3 (11715873_a_at) / RFU LOC100653217 /// NTM (11731650_a_at) / Fold change /veh LOC100653217 /// NTM (11731650_a_at) / RFU MAPK11 (11762145_a_at) / Fold change /veh MAPK11 (11762145_a_at) / RFU FIZ1 (11724087_x_at) / Fold change /veh FIZ1 (11724087_x_at) / RFU OASL (11726364_x_at) / Fold change /veh OASL (11726364_x_at) / RFU SOX15 (11748057_x_at) / Fold change /veh SOX15 (11748057_x_at) / RFU CD79A (11719716_a_at) / Fold change /veh CD79A (11719716_a_at) / RFU HIST1H1D (11736915_at) / Fold change /veh HIST1H1D (11736915_at) / RFU CASKIN2 (11723855_a_at) / Fold change /veh CASKIN2 (11723855_a_at) / RFU LOC730098 (11760151_x_at) / Fold change /veh LOC730098 (11760151_x_at) / RFU OR4N2 (11742367_at) / Fold change /veh OR4N2 (11742367_at) / RFU PRRT2 (11749266_a_at) / Fold change /veh PRRT2 (11749266_a_at) / RFU SNX32 (11753110_a_at) / Fold change /veh SNX32 (11753110_a_at) / RFU CDHR5 (11726645_a_at) / Fold change /veh CDHR5 (11726645_a_at) / RFU RCAN1 (11760418_a_at) / Fold change /veh RCAN1 (11760418_a_at) / RFU FAM167A (11723789_a_at) / Fold change /veh FAM167A (11723789_a_at) / RFU FAM26E (11764081_at) / Fold change /veh FAM26E (11764081_at) / RFU ISYNA1 (11749810_s_at) / Fold change /veh ISYNA1 (11749810_s_at) / RFU ACY1 (11761880_at) / Fold change /veh ACY1 (11761880_at) / RFU 11764098_at / Fold change /veh 11764098_at / RFU SAMD14 (11745864_x_at) / Fold change /veh SAMD14 (11745864_x_at) / RFU NPB (11741838_a_at) / Fold change /veh NPB (11741838_a_at) / RFU TMPRSS6 (11731388_a_at) / Fold change /veh TMPRSS6 (11731388_a_at) / RFU KRTAP10-2 (11738614_at) / Fold change /veh KRTAP10-2 (11738614_at) / RFU ARHGAP8 /// PRR5-ARHGAP8 (11727945_x_at) / Fold change /veh ARHGAP8 /// PRR5-ARHGAP8 (11727945_x_at) / RFU KRTAP5-7 /// NADSYN1 (11734609_at) / Fold change /veh KRTAP5-7 /// NADSYN1 (11734609_at) / RFU RASL12 (11751679_a_at) / Fold change /veh RASL12 (11751679_a_at) / RFU CDKN2B (11736163_a_at) / Fold change /veh CDKN2B (11736163_a_at) / RFU PRF1 (11729649_at) / Fold change /veh PRF1 (11729649_at) / RFU, ZNF638 /// ZNF638-IT1 / Fold change vs veh, ZNF638 /// ZNF638-IT1 / RFU, PANK3 / Fold change vs veh, PANK3 / RFU, SH3YL1 / Fold change vs veh, SH3YL1 / RFU, ZEB2 / Fold change vs veh, ZEB2 / RFU, NRIP1 / Fold change vs veh, NRIP1 / RFU, PTTG1IP / Fold change vs veh, PTTG1IP / RFU, CAPN2 / Fold change vs veh, CAPN2 / RFU, MED14 / Fold change vs veh, MED14 / RFU, SNORA58 / Fold change vs veh, SNORA58 / RFU, C1orf63 / Fold change vs veh, C1orf63 / RFU, LRRFIP1 / Fold change vs veh, LRRFIP1 / RFU, NDUFAF7 / Fold change vs veh, NDUFAF7 / RFU, SLC12A2 / Fold change vs veh, SLC12A2 / RFU, IBTK / Fold change vs veh, IBTK / RFU, ESF1 / Fold change vs veh, ESF1 / Fold change vs veh, TMEM50B / RFU, TAOK1 / Fold change vs veh, TAOK1 / RFU, ACBD3 / Fold change vs veh, ACBD3 / RFU, TMA16 / Fold change vs veh, TMA16 / RFU, RWDD3 / Fold change vs veh, RWDD3 / RFU, BCAT1 / Fold change vs veh, BCAT1 / RFU, EDEM3 / Fold change vs veh, EDEM3 / RFU, TMEM33 / Fold change vs veh, TMEM33 / RFU, WDR75 / Fold change vs veh, WDR75 / RFU, AHCTF1 / Fold change vs veh, AHCTF1 / RFU, TFRC / Fold change vs veh, TFRC / RFU, ZDHHC17 / Fold change vs veh, ZDHHC17 / RFU, NOM1 / Fold change vs veh, NOM1 / RFU, ARL8B / Fold change vs veh, ARL8B / RFU, ZBTB11 / Fold change vs veh, ZBTB11 / RFU, TAMM41 / Fold change vs veh, TAMM41 / RFU, KIAA1704 /// LOC100996395 / Fold change vs veh, KIAA1704 /// LOC100996395 / RFU, ING1 / Fold change vs veh, ING1 / RFU, TRMT61B / Fold change vs veh, TRMT61B / RFU, FUBP3 / Fold change vs veh, FUBP3 / RFU, TP53 / Fold change vs veh, TP53 / RFU, TNKS2 / Fold change vs veh, TNKS2 / RFU, ZFP14 / Fold change vs veh, ZFP14 / RFU, ACTR2 / Fold change vs veh, ACTR2 / RFU, PPP3R1 / Fold change vs veh, PPP3R1 / RFU, PIK3R1 / Fold change vs veh, PIK3R1 / RFU, HNRNPA1 / Fold change vs veh, HNRNPA1 / RFU, RNF170 / Fold change vs veh, RNF170 / RFU, ZNF28 / Fold change vs veh, ZNF28 / RFU, RNGTT / Fold change vs veh, RNGTT / RFU, OGT / Fold change vs veh, OGT / RFU, BRD1 / Fold change vs veh, BRD1 / RFU, MARS / Fold change vs veh, MARS / RFU, ZNF655 / Fold change vs veh, ZNF655 / RFU, FAHD1 / Fold change vs veh, FAHD1 / RFU, BDP1 / Fold change vs veh, BDP1 / RFU, LRRCC1 / Fold change vs veh, LRRCC1 / RFU, ARID1A / Fold change vs veh, ARID1A / RFU, ZNF146 / Fold change vs veh, ZNF146 / RFU, ZNF330 / Fold change vs veh, ZNF330 / RFU, GPN3 / Fold change vs veh, GPN3 / RFU, C9orf123 / Fold change vs veh, C9orf123 / RFU, N4BP2L2 / Fold change vs veh, N4BP2L2 / RFU, ARFIP1 / Fold change vs veh, ARFIP1 / RFU, FAM179B / Fold change vs veh, FAM179B / RFU, BCL10 / Fold change vs veh, BCL10 / RFU, UHRF1BP1L / Fold change vs veh, UHRF1BP1L / RFU, BET1 / Fold change vs veh, BET1 / RFU, CNOT2 / Fold change vs veh, CNOT2 / RFU, ZNF268 / Fold change vs veh, ZNF268 / Fold change vs veh, ZNF507 / RFU, DGCR2 / Fold change vs veh, DGCR2 / RFU, WDSUB1 / Fold change vs veh, WDSUB1 / Fold change vs veh, HSP90B1 /// MIR3652 / RFU, ADSS / Fold change vs veh, ADSS / RFU, GK / Fold change vs veh, GK / RFU, ZNF148 / Fold change vs veh, ZNF148 / RFU, TAF9 / Fold change vs veh, TAF9 / RFU, SLC1A5 / Fold change vs veh, SLC1A5 / RFU, SLMO2 / Fold change vs veh, SLMO2 / RFU, ABCC4 / Fold change vs veh, ABCC4 / RFU, LOC101060439 /// RAP1B / Fold change vs veh, LOC101060439 /// RAP1B / RFU, RFX7 / Fold change vs veh, RFX7 / RFU, GTPBP10 / Fold change vs veh, GTPBP10 / RFU, CNEP1R1 / Fold change vs veh, CNEP1R1 / RFU, BIVM-ERCC5 /// ERCC5 / Fold change vs veh, BIVM-ERCC5 /// ERCC5 / RFU, ILF3 / Fold change vs veh, ILF3 / RFU 11762660_at / Fold change /veh 11762660_at / RFU VCAN (11757783_s_at) / Fold change /veh VCAN (11757783_s_at) / RFU DDX43 (11728927_at) / Fold change /veh DDX43 (11728927_at) / RFU KRT8 (11758188_x_at) / Fold change /veh KRT8 (11758188_x_at) / RFU NKD1 (11759106_at) / Fold change /veh NKD1 (11759106_at) / RFU SRD5A1 (11742802_a_at) / Fold change /veh SRD5A1 (11742802_a_at) / RFU TPSAB1 /// TPSB2 (11721975_s_at) / Fold change /veh TPSAB1 /// TPSB2 (11721975_s_at) / RFU GSTM3 (11746129_a_at) / Fold change /veh GSTM3 (11746129_a_at) / RFU IL23R (11737362_x_at) / Fold change /veh IL23R (11737362_x_at) / RFU TMEM51 (11727254_a_at) / Fold change /veh TMEM51 (11727254_a_at) / RFU PIWIL2 (11732686_x_at) / Fold change /veh PIWIL2 (11732686_x_at) / RFU ORM1 (11744905_x_at) / Fold change /veh ORM1 (11744905_x_at) / RFU CCDC152 (11743942_at) / Fold change /veh CCDC152 (11743942_at) / RFU ECM1 (11717891_a_at) / Fold change /veh ECM1 (11717891_a_at) / RFU IL23R (11748794_a_at) / Fold change /veh IL23R (11748794_a_at) / RFU TNFAIP8L3 (11732012_x_at) / Fold change /veh TNFAIP8L3 (11732012_x_at) / RFU MBOAT4 (11741988_at) / Fold change /veh MBOAT4 (11741988_at) / RFU 11764193_at / Fold change /veh 11764193_at / RFU TMEM53 (11763286_at) / Fold change /veh TMEM53 (11763286_at) / RFU MAGEB2 (11727129_at) / Fold change /veh MAGEB2 (11727129_at) / RFU TMEM200A (11744735_a_at) / Fold change /veh TMEM200A (11744735_a_at) / RFU CCDC152 (11751479_a_at) / Fold change /veh CCDC152 (11751479_a_at) / RFU FAM211A (11726209_a_at) / Fold change /veh FAM211A (11726209_a_at) / RFU RGS16 (11746705_a_at) / Fold change /veh RGS16 (11746705_a_at) / RFU VCAN (11755009_s_at) / Fold change /veh VCAN (11755009_s_at) / RFU RHOB (11743442_s_at) / Fold change /veh RHOB (11743442_s_at) / RFU RGS16 (11720943_a_at) / Fold change /veh RGS16 (11720943_a_at) / RFU RGS16 (11720944_at) / Fold change /veh RGS16 (11720944_at) / RFU, VPS4B / Fold change vs veh, VPS4B / RFU, CREB1 / Fold change vs veh, CREB1 / RFU, DNAJC13 / Fold change vs veh, DNAJC13 / RFU, GNAQ / Fold change vs veh, GNAQ / RFU, CDK5R1 / Fold change vs veh, CDK5R1 / RFU, ZRANB3 / Fold change vs veh, ZRANB3 / RFU, CUL4A / Fold change vs veh, CUL4A / RFU, CCNY / Fold change vs veh, CCNY / RFU, UFL1 / Fold change vs veh, UFL1 / RFU, COG3 / Fold change vs veh, COG3 / RFU, DIAPH2 / Fold change vs veh, DIAPH2 / RFU, SKA2 / Fold change vs veh, SKA2 / RFU, AFF3 / Fold change vs veh, AFF3 / RFU, LMF1 / Fold change vs veh, LMF1 / RFU, IPO11 / Fold change vs veh, IPO11 / RFU, DFFB / Fold change vs veh, DFFB / RFU, FOXP1 / Fold change vs veh, FOXP1 / RFU, CARD8 / Fold change vs veh, CARD8 / RFU, STRN3 / Fold change vs veh, STRN3 / RFU, ADK / Fold change vs veh, ADK / RFU, RASSF2 / Fold change vs veh, RASSF2 / RFU, WIPF1 / Fold change vs veh, WIPF1 / RFU, LARP1B / Fold change vs veh, LARP1B / RFU, RASA1 / Fold change vs veh, RASA1 / RFU, RB1 / Fold change vs veh, RB1 / RFU, PPFIA1 / Fold change vs veh, PPFIA1 / RFU, MAT2A / Fold change vs veh, MAT2A / RFU, CCT5 / Fold change vs veh, CCT5 / RFU, WDR92 / Fold change vs veh, WDR92 / RFU, CUX1 / Fold change vs veh, CUX1 / RFU, TTC7A / Fold change vs veh, TTC7A / RFU, TMEM135 / Fold change vs veh, TMEM135 / RFU, DEPTOR / Fold change vs veh, DEPTOR / RFU, CPM / Fold change vs veh, CPM / RFU, DNAJB6 / Fold change vs veh, DNAJB6 / RFU, CACNA2D3 / Fold change vs veh, CACNA2D3 / RFU, DTX4 / Fold change vs veh, DTX4 / RFU, TFCP2 / Fold change vs veh, TFCP2 / RFU, GMCL1 /// GMCL1P1 / Fold change vs veh, GMCL1 /// GMCL1P1 / RFU, AEBP2 / Fold change vs veh, AEBP2 / RFU, SNHG1 /// SNORD22 /// SNORD25 /// SNORD26 /// SNORD27 /// SNORD28 /// SNORD29 /// SNORD31 / Fold change vs veh, SNHG1 /// SNORD22 /// SNORD25 /// SNORD26 /// SNORD27 /// SNORD28 /// SNORD29 /// SNORD31 / Fold change (Aza/veh), C12orf56 (ProbeSet 11735607_a_at) / Fold change (ACY-1035/veh), C12orf56 (ProbeSet 11735607_a_at) / Fold change (Aza/veh), FGFR1OP (ProbeSet 11751329_s_at) / Fold change (ACY-1035/veh), FGFR1OP (ProbeSet 11751329_s_at) / Fold change (Aza/veh), VPS36 (ProbeSet 11739960_a_at) / Fold change (ACY-1035/veh), VPS36 (ProbeSet 11739960_a_at) / RFU SYPL1 (11715823_x_at) / Fold change /veh SYPL1 (11715823_x_at) / RFU IGFBP7 (11715501_s_at) / Fold change /veh IGFBP7 (11715501_s_at) / RFU REEP3 (11722064_at) / Fold change /veh REEP3 (11722064_at) / RFU IGLL1 (11728026_x_at) / Fold change /veh IGLL1 (11728026_x_at): dose or concentration left out as unconfirmed
Conditions: ProbeSet 11744854_x_at; LIST B

SMILES: Nc1ccc(-c2cccs2)cc1NC(=O)c1ccc2c(c1)cc(C1CC1)n2CCN1CCOCC1 [ACY-1035]
- Fold change vs veh, ZNF28: 0.85
